# In PMC6934184, “Selective DNA-PKcs inhibition extends the therapeutic index of localized radiotherapy and chemotherapy” (The Journal of Clinical Investigation, 2019):
# Target: T1, PRKCB1 (PKC beta I) (Homo sapiens, UniProt P05771)
# T1 construct: purchased Thermo Fisher Scientific (Life Technologies) SelectScreen
# Assay: SelectScreen Z'LYTE
# Format: biochemical
# Outline: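 SelectScreen broad panel; activity (Z'LYTE, Adapta) plus binding formats. ATP: Km app for CSF1R Z'LYTE; 10 for CAMK1 Adapta. Readout = % per kinase.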
# T1 sequence (P05771 whole entry): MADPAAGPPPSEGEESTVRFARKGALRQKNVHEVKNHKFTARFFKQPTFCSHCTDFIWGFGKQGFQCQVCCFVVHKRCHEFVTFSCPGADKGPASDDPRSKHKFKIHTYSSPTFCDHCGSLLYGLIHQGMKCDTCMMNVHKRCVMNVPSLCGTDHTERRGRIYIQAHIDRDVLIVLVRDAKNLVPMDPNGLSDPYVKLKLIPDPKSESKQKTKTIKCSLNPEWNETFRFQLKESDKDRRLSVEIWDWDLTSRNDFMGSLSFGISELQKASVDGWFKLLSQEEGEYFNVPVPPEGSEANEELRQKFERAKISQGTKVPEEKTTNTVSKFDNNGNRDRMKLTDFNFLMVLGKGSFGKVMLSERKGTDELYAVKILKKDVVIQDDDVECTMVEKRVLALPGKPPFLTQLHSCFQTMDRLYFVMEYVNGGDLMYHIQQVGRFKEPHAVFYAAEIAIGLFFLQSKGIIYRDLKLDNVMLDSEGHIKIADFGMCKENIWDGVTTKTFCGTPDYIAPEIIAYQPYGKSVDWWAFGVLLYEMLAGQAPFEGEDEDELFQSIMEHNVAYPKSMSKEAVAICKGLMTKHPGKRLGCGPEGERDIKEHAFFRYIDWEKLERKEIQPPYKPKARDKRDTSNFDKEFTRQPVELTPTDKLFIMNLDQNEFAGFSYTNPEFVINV
structure (smiles),measurement,value
CN(C(=O)CN1CCOCC1)c1ccc2sc3c(-c4cccc5c(=O)cc(N6CC7CCC(C6)O7)oc45)cccc3c2c1 [NU5455],inhibition at 1 µM,-0.7%
